Legend:
Format in all cases: in vivo, rat
[1] = system: Lew recipients of heterotopic BN heart transplants; experiment: Five-day heart allograft study: ELISPOT (IFN-γ, IL-4, IL-17) of recipient splenocytes; details: LD groups (Compound I 15 mg/kg BID, Compound III 5 mg/kg BID, Tac 1 mg/kg QD); five days
Procedure: (§1) Compound I and Compound III were provided by Rigel (South San Francisco, Calif.) and Tacrolimus was provided by Astellas (Munich, Germany). All drugs were administrated orally each in two different concentrations: Compound I LD (15 mg/kg BID; n=6) and HD (60 mg/kg BID; n=6); Compound III LD (5 mg/kg BID; n=6) and HD (20 mg/kg BID; n=6); Tac LD (1 mg/kg QD; n=6) and HD (4 mg/kg QD; n=6). Administration of all drugs was performed every day at the same time points. Tacrolimus was applied only once a day (QD) every 24 hours. During administration of Compound I (BID) and Compound III (BID) a 12 hour pause was kept in between each drug application.
(§2) Lew recipients of heterotopic BN heart transplants were randomly assigned to their group. Animals were either left untreated (groups 1 and 2; see Table 1,5-day study) or received their group specific medication (groups 3-8; see Table 1,5-day study) by oral application. An untreated syngeneic transplant group Lew-Lew was generated as control.
Lymphocytes were isolated from freshly harvested spleens. ELISPOT assays with 1×10^7/ml mitomycin-inhibited BN splenocytes and 1×10^6/ml Lew splenocytes were performed according to the manufacturer's protocol (BD Biosciences). 96-well plates were coated with IFN-γ, IL-17, and IL-4 to assess T helper cell (Th)1-, Th17-, and Th2-responses independently. All assays were performed in quadruplicates. Spots were automatically enumerated using an ELISPOT plate reader (CTL, Cincinnati, Ohio) for scanning and analyzing.

[2] = system: Lew recipients of heterotopic BN heart transplants; experiment: Five-day heart allograft study: donor-specific IgM antibodies by flow cytometry; details: LD and HD groups; five days; p<0.001
Procedure: as §1, §2
Donor splenocytes were isolated and erythrocytes were lysed using the ACK buffer (Lonza, Walkersville, Md.). Sera from recipient rats were decomplemented and equal amounts of sera and splenocyte suspensions (5×10^6 cells/ml) were incubated for 30 minutes at room temperature. IgM antibodies were stained by incubation of the cells with a conjugated mouse antibody specific for the Fc-portion of rat IgM (Monoclonal Anti-rat IGM, Clone RTM-32, Sigma) followed by incubation with a 488-conjugated secondary antibody (Invitrogen). Cells were washed with PBS, fixed with 2% paraformaldehyde (Science Services), and analyzed on a FACSCalibur™ system (BD Biosciences). Fluorescence data were expressed as mean fluorescence intensity (MFI) using Flowjo software (Tree Star, Inc., Ashland, Oreg.).

[3] = system: Lew recipients of heterotopic BN heart transplants; experiment: Five-day heart allograft study: H+E histology, ISHLT rejection classification; details: HD (Compound I 60 mg/kg BID, Compound III 20 mg/kg BID, Tac 4 mg/kg QD); five days after transplantation
Source text: Male Brown Norway (BN) and Lewis (Lew) rats weighing 350 g were purchased from Harlan (Indianapolis, Ind.) and were housed under conventional conditions. All animals were fed standard rat chow and water ad libitum and received humane care in compliance with the Principles of Laboratory Animal Care formulated by the National Society for Medical Research and the Guide for the care and Use of Laboratory Animals published by the National Institutes of Health (National Institutes of Health publication No. 85-23, revised 1985). Allogeneic (BN-to-Lew) and syngeneic (Lew-to-Lew) heterotopic heart transplantations were performed as described previously (Ono et al., J. Thorac. Cardiovasc. Surg. 57:225-229, 1969). In brief, rats were anaesthetized using 2% isoflurane. The donor received an intravenous bolus of 500 I.U. heparin. Cardiac arrest was achieved using 20 ml Bretschneider solution (Custodiol, Dr. F. Koehler Chemie, Bensheim, Germany). […] Heart-beating score was assessed directly after transplantation for each animal from score 0 (no palpable contraction) to 4 (strong and regular contraction). Only animals with beating scores of 4 were included into the study. Compound I and Compound III were provided by Rigel (South San Francisco, Calif.) and Tacrolimus was provided by Astellas (Munich, Germany). All drugs were administrated orally each in two different concentrations: Compound I LD (15 mg/kg BID; n=6) and HD (60 mg/kg BID; n=6); […] Administration of all drugs was performed every day at the same time points. Tacrolimus was applied only once a day (QD) every 24 hours. During administration of Compound I (BID) and Compound III (BID) a 12 hour pause was kept in between each drug application. Lew recipients of heterotopic BN heart transplants were randomly assigned to their group. […] An untreated syngeneic transplant group Lew-Lew was generated as control. Grafts were recovered five days after transplantation and fixed in 4% paraformaldehyde (Science Services, Munich, Germany), dehydrated and embedded in paraffin. […] Waldeck, Carl Roth GmbH, Munster, Germany) and examined by standard light microscopy. The extent of acute cardiac graft rejection in H+E staining was examined by an experienced pathologist according to the 2004 ISHLT working formulation (Stewart et al., J. Heart Lung Transplant. 24:1710-1720, 2005).

[4] = system: BN-to-Lew heterotopic heart transplantations; experiment: Graft survival study after 10-day treatment, with combination index; details: no medication 7±0 days
Source text: Male Brown Norway (BN) and Lewis (Lew) rats weighing 350 g were purchased from Harlan (Indianapolis, Ind.) and were housed under conventional conditions. All animals were fed standard rat chow and water ad libitum and received humane care in compliance with the Principles of Laboratory Animal Care formulated by the National Society for Medical Research and the Guide for the care and Use of Laboratory Animals published by the National Institutes of Health (National Institutes of Health publication No. 85-23, revised 1985). Allogeneic (BN-to-Lew) and syngeneic (Lew-to-Lew) heterotopic heart transplantations were performed as described previously (Ono et al., J. Thorac. Cardiovasc. Surg. 57:225-229, 1969). In brief, rats were anaesthetized using 2% isoflurane. The donor received an intravenous bolus of 500 I.U. heparin. Cardiac arrest was achieved using 20 ml Bretschneider solution (Custodiol, Dr. F. Koehler Chemie, Bensheim, Germany). […] Heart-beating score was assessed directly after transplantation for each animal from score 0 (no palpable contraction) to 4 (strong and regular contraction). Only animals with beating scores of 4 were included into the study.
as §1
BN-to-Lew heterotopic heart transplantations were performed. Recipient animals were treated for 10 days according to Table 1 (10 day survival study group) and graft survival was monitored by daily palpation of the beating donor heart through the abdominal wall. Scoring was assessed according to heart-beating score of 0 to 4. The time of rejection was defined as the last day of palpable cardiac contractions and graft rejection was confirmed by laparotomy.
The median-effect principle of Chou (in Synergism and Antagonism in Chemotherapy, Chou and Rideout, eds, pp. 61-102, Academic Press, 1991) is based on the premise that the effect of each agent is related to its dose and, therefore, can be calculated using the following equation: (fa/fu)=(D/Dm)m, where fa and fu represent the fractions of the system that are affected (% inhibition or rather days of survival beyond controls) and unaffected (1−fa), respectively, by the drug at dose D. Full protection (fa=1) is defined as at least a 28-day survival of allografts. Dm is the dose required for 50% inhibition (ED50), the median effect (m) is a coefficient that describes the sigmoidicy of the dose-effect curve. The interaction between two drugs is assessed by the combination index (CI) equation for the doses to achieve x % inhibition:
[formula] for the mutually nonexclusive case, where each drug has a different mode of action. A computer software program was used to determine the dose-effect parameters (Dm, m, and r), and the CI values (CalcuSyn, Biosoft, Cambridge, United Kingdom).
Graft survival was monitored by daily palpation of the beating donor heart through the abdominal wall and treatment of animals was stopped after 10 days.

C=CC[C@@H]1/C=C(\C)C[C@H](C)C[C@H](OC)[C@H]2O[C@@](O)(C(=O)C(=O)N3CCCC[C@H]3C(=O)O[C@H](/C(C)=C/[C@@H]3CC[C@@H](O)[C@H](OC)C3)[C@H](C)[C@@H](O)CC1=O)[C@H](C)C[C@@H]2OC [Tac, Tacrolimus, reference compound]
IFN-γ spot frequency (ELISPOT) compared to no medication group [1]: no significant reduction | donor-specific IgM antibodies (DSA) vs. no medication [2]: significant suppression | hearts with ISHLT score of 1 [3]: 67% | hearts with ISHLT score of 2 [3]: 33% | graft survival, mean ([4]; HD (Compound I 60 mg/kg BID, Compound III 20 mg/kg BID, Tac 4 mg/kg QD) for 10 days): 20 ± 3 days | graft survival, mean ([4]; LD (Compound I 15 mg/kg BID, Compound III 5 mg/kg BID, Tac 1 mg/kg QD) for 10 days): 13 ± 2 days
